Data from ChEMBL document CHEMBL1137505, “Direct diazo-transfer reaction on beta-lactam: synthesis and preliminary biological activities of 6-triazolylpenicillanic acids” (2007).
In brackets after ≈: the same amount, converted by molar mass.

Tests used:
Type in all cases: functional
Staphylococcus aureus = experiment: Antibacterial activity against Staphylococcus aureus ATCC 29213
Escherichia coli = experiment: Antibacterial activity against Escherichia coli ATCC 25922
Streptococcus pneumoniae = experiment: Antibacterial activity against Streptococcus pneumoniae ATCC 49619
Bacillus anthracis = experiment: Antibacterial activity against Bacillus anthracis AMES

With `CC1(C)S[C@@H]2[C@H](n3cc(-c4ccccc4-c4ccccc4)nn3)C(=O)N2[C@H]1C(=O)O` the MIC (Staphylococcus aureus) was > 8 µg/mL, the MIC (Escherichia coli) was > 8 µg/mL and the MIC (Streptococcus pneumoniae) was > 8 µg/mL. For the same compound, the MIC (Bacillus anthracis) was > 8 µg/mL.
`CC1(C)S[C@@H]2[C@H](n3cc(C(O)c4ccc(-c5ccncc5)cc4)nn3)C(=O)N2[C@H]1C(=O)[O-].[Na+]` (stereo partly drawn) was tested, and the MIC (Staphylococcus aureus) was > 8 µg/mL, the MIC (Escherichia coli) was > 8 µg/mL and the MIC (Streptococcus pneumoniae) was ≥ 8 µg/mL. The MIC (Bacillus anthracis) was ≥ 8 µg/mL.
`CC1(C)S[C@@H]2[C@H](n3cc(C(O)c4ccccc4)nn3)C(=O)N2[C@H]1C(=O)O` (stereo partly drawn) was tested, and the MIC (Staphylococcus aureus) was > 8 µg/mL, the MIC (Escherichia coli) was > 8 µg/mL and the MIC (Streptococcus pneumoniae) was > 8 µg/mL. For the same compound, the MIC (Bacillus anthracis) was > 8 µg/mL.
In the case of `CC1(C)S[C@@H]2[C@H](n3cc(-c4ccc(-c5ccccc5)cc4)nn3)C(=O)N2[C@H]1C(=O)O`, the MIC (Staphylococcus aureus) is reported as > 8 µg/mL, the MIC (Escherichia coli) is reported as > 8 µg/mL and the MIC (Streptococcus pneumoniae) is reported as ≥ 8 µg/mL. For the same compound, the MIC (Bacillus anthracis) was > 8 µg/mL.
For `CC1(C)S[C@@H]2[C@H](n3cc(-c4ccc(-c5ccncc5)cc4)nn3)C(=O)N2[C@H]1C(=O)O`, the MIC (Staphylococcus aureus) was > 8 µg/mL, the MIC (Escherichia coli) was > 8 µg/mL and the MIC (Streptococcus pneumoniae) was > 8 µg/mL. The MIC (Bacillus anthracis) was > 8 µg/mL.
In the case of `CC1(C)S[C@@H]2[C@H](n3cc(Cc4ccccc4)nn3)C(=O)N2[C@H]1C(=O)O`, the MIC (Staphylococcus aureus) is reported as > 8 µg/mL, the MIC (Escherichia coli) is reported as > 8 µg/mL and the MIC (Streptococcus pneumoniae) is reported as 4 µg/mL (≈ 11.2 µM). The MIC (Bacillus anthracis) was > 8 µg/mL.
For `COc1cccc(OC)c1-c1cn([C@@H]2C(=O)N3[C@@H]2SC(C)(C)[C@@H]3C(=O)O)nn1`, the MIC (Staphylococcus aureus) was > 8 µg/mL, the MIC (Escherichia coli) was > 8 µg/mL and the MIC (Streptococcus pneumoniae) was > 8 µg/mL. For the same compound, the MIC (Bacillus anthracis) was > 8 µg/mL.
`CC1(C)S[C@@H]2[C@H](n3cc(-c4cccnc4)nn3)C(=O)N2[C@H]1C(=O)O` was tested, and the MIC (Staphylococcus aureus) was > 8 µg/mL, the MIC (Escherichia coli) was > 8 µg/mL and the MIC (Streptococcus pneumoniae) was > 8 µg/mL. For the same compound, the MIC (Bacillus anthracis) was > 8 µg/mL.
`CC1(C)S[C@@H]2[C@H](n3cc(-c4ccccn4)nn3)C(=O)N2[C@H]1C(=O)O` was tested, and the MIC (Staphylococcus aureus) was > 8 µg/mL, the MIC (Escherichia coli) was > 8 µg/mL and the MIC (Streptococcus pneumoniae) was > 8 µg/mL. The MIC (Bacillus anthracis) was > 8 µg/mL.
In the case of `CC1(C)S[C@@H]2[C@H](n3cc(-c4ccccc4)nn3)C(=O)N2[C@H]1C(=O)O`, the MIC (Staphylococcus aureus) is reported as > 8 µg/mL, the MIC (Escherichia coli) is reported as > 8 µg/mL and the MIC (Streptococcus pneumoniae) is reported as 4 µg/mL (≈ 11.6 µM). For the same compound, the MIC (Bacillus anthracis) was > 8 µg/mL.
For `CC1(C)S[C@@H]2[C@H](n3cc(-c4cccc(-c5ccccc5)c4)nn3)C(=O)N2[C@H]1C(=O)O`, the MIC (Staphylococcus aureus) was > 8 µg/mL, the MIC (Escherichia coli) was > 8 µg/mL and the MIC (Streptococcus pneumoniae) was > 8 µg/mL. For the same compound, the MIC (Bacillus anthracis) was > 8 µg/mL.
With `CC1(C)S[C@@H]2[C@H](n3cc(-c4ccncc4)nn3)C(=O)N2[C@H]1C(=O)O` the MIC (Staphylococcus aureus) was > 8 µg/mL, the MIC (Escherichia coli) was > 8 µg/mL and the MIC (Streptococcus pneumoniae) was > 8 µg/mL. For the same compound, the MIC (Bacillus anthracis) was > 8 µg/mL.
For `CC1(C)S[C@@H]2[C@H](n3cc(-c4cccs4)nn3)C(=O)N2[C@H]1C(=O)O`, the MIC (Staphylococcus aureus) was > 8 µg/mL, the MIC (Escherichia coli) was > 8 µg/mL and the MIC (Streptococcus pneumoniae) was 8 µg/mL (≈ 22.8 µM). For the same compound, the MIC (Bacillus anthracis) was > 8 µg/mL.
`CC1(C)S[C@@H]2[C@H](NC(=O)Cc3ccccc3)C(=O)N2[C@H]1C(=O)O` [PENICILLIN G] was tested, and the MIC (Staphylococcus aureus) was 1 µg/mL (≈ 2.99 µM), the MIC (Escherichia coli) was > 2 µg/mL and the MIC (Bacillus anthracis) was ≤ 0.125 µg/mL.
For `CCN1CCN(C(=O)N[C@@H](C(=O)N[C@@H]2C(=O)N3[C@@H]2SC(C)(C)[C@@H]3C(=O)O)c2ccccc2)C(=O)C1=O` [PIPERACILLIN], the MIC (Staphylococcus aureus) was 2 µg/mL (≈ 3.86 µM), the MIC (Escherichia coli) was 4 µg/mL (≈ 7.73 µM) and the MIC (Bacillus anthracis) was 1 µg/mL (≈ 1.93 µM).
